These results are taken from ChEMBL document CHEMBL1777812, “New 1,4-di-N-oxide-quinoxaline-2-ylmethylene isonicotinic acid hydrazide derivatives as anti-Mycobacterium tuberculosis agents” (Bioorg Med Chem Lett, 2011).

Data set [1] in a line: Cytotoxicity against african green monkey Vero cells after 72 hrs by Cell titer Glo luminescent cell viability assay. To be noted: chlorocebus sabaeus. It is filed as cell-based.
In data set [2] the test system is Mycobacterium tuberculosis. Description: Antimycobacterial activity against Mycobacterium tuberculosis H37Rv ATCC 27294 by microplate Alamar blue assay. Format: functional, organism-based. A general note: The colour change of resazurin is a common sign of viable cells or microbes.
Data set [3] in a line: Selectivity index, Ratio of CC50 for african green monkey Vero cells to IC90 for Mycobacterium tuberculosis H37Rv ATCC 27294. Format: toxicity, cell-based.

For orientation: CC50 means the concentration at which the toxic effect on the cells reaches its halfway point. A word on the IC50: it is the concentration that gives 50% inhibition. A word on the IC90: it is the point of the concentration-response curve where the effect stands at 90%. In the case of `Cc1c(C(=O)NCc2ccccc2)[n+]([O-])c2cc(Cl)ccc2[n+]1[O-]`, the CC50 at 72 h in data set [1] was above 291 µM. In addition, in data set [2], the IC50 stood at 1.1 µM and the IC90 is 1.25 µM. In addition, the selectivity ratio in data set [3] was above 231.

For the compound `Cc1c(/C=N/NC(=O)c2ccncc2)[n+]([O-])c2cc(F)ccc2[n+]1[O-]`, the CC50 at 72 h in data set [1] stood at 76.5 µM. In data set [2], the IC50 is below 0.58 µM and the 90% effect level (IC90) was put at 23.1 µM. Moreover, the selectivity ratio in data set [3] came out at 3.31.

Compound `Cc1cc2c(cc1C)[n+]([O-])c(/C=N/NC(=O)c1ccncc1)c(C)[n+]2[O-]` returned a CC50 at 72 h in data set [1] above 124 µM. In data set [2], this compound gave a concentration for half-maximal inhibition (IC50) of 1.22 µM and an IC90 of 2.57 µM. Besides, the selectivity ratio in data set [3] was above 43.5.

`Cc1c(C(=O)NCc2ccccc2)[n+]([O-])c2cc(F)ccc2[n+]1[O-]` had a half-maximal cytotoxic concentration (CC50) at 72 h in data set [1] above 306 µM. In data set [2], this compound showed an IC50 of 2.83 µM and an IC90 of 4.65 µM. Also, the selectivity ratio in data set [3] was above 65.7.

Take `Cc1c(/C=N/NC(=O)c2ccncc2)[n+]([O-])c2cc(C(F)(F)F)ccc2[n+]1[O-]`: the CC50 at 72 h in data set [1] turned out to be 70 µM. In data set [2], this compound returned an IC50 of 1.5 µM and an IC90 of 3.5 µM. The selectivity ratio in data set [3] was 20.

The compound `Cc1ccc2c(c1)[n+]([O-])c(C(=O)NCc1ccccc1)c(C)[n+]2[O-]` registered a CC50 at 72 h in data set [1] above 309 µM. In data set [2], the IC50 came to 8.35 µM and the IC90 was 13 µM. Besides, the selectivity ratio in data set [3] was above 23.8.

For the compound `Cc1cc2c(cc1C)[n+]([O-])c(C(=O)NCc1ccccc1)c(C)[n+]2[O-]`, in data set [2], the IC50 is 90.8 µM and the IC90 came to 296 µM.

Compound `NNC(=O)c1ccncc1` [ISONIAZID] yielded a CC50 at 72 h in data set [1] above 500 µM. In data set [2], this compound yielded an IC90 of 0.21 µM. In data set [3], the selectivity ratio was above 20000.

Regarding `Cc1ccc2c(c1)[n+]([O-])c(/C=N/NC(=O)c1ccncc1)c(C)[n+]2[O-]`, the midpoint of cytotoxicity in data set [1], the CC50 at 72 h, lay at 52.1 µM. In data set [2], this compound yielded an IC50 of 1.33 µM and an IC90 of 18.2 µM. In addition, the selectivity ratio in data set [3] is 2.86.

In data set [1], `Cc1c(/C=N/NC(=O)c2ccncc2)[n+]([O-])c2cc(Cl)ccc2[n+]1[O-]` showed a CC50 at 72 h of 55.8 µM. Further, in data set [2], the IC50 was 1.04 µM and the IC90 was found to be 1.16 µM. Moreover, the selectivity ratio in data set [3] worked out at 48.1.

In data set [2], `COc1ccc2c(c1)[n+]([O-])c(/C=N/NC(=O)c1ccncc1)c(C)[n+]2[O-]` showed an IC50 below 0.59 µM and a 90% effect concentration (IC90) of 50.6 µM.

In data set [2], `COc1ccc2c(c1)[n+]([O-])c(C(=O)NCc1ccccc1)c(C)[n+]2[O-]` returned an IC50 of 18.9 µM and an IC90 of 36.4 µM.

In turn, `Cc1c(C(=O)NCc2ccccc2)[n+]([O-])c2ccccc2[n+]1[O-]` came in with a CC50 at 72 h in data set [1] above 323 µM. In data set [2], the IC50 was 4.91 µM and the 90% effect level (IC90) was put at 8.42 µM. Moreover, the selectivity ratio in data set [3] is above 38.4.

`Cc1c(/C=N/NC(=O)c2ccncc2)[n+]([O-])c2ccccc2[n+]1[O-]` registered a CC50 at 72 h in data set [1] above 124 µM. In data set [2], this compound showed an IC50 of 1.17 µM and an IC90 of 1.32 µM. For the same compound, the selectivity ratio in data set [3] was above 93.

Consider `Cc1c(C(=O)NCc2ccccc2)[n+]([O-])c2cc(C(F)(F)F)ccc2[n+]1[O-]`, for which the CC50 at 72 h in data set [1] is above 265 µM. Moreover, in data set [2], the IC50 was below 0.81 µM and it took 1.07 µM to reach the 90% level (IC90). Moreover, in data set [3], the selectivity ratio is above 246.
